Experimental data published in patent US20090181952A1 (Wyeth, priority 2008, published 2009).
Like-named read-outs stand apart in the source and are kept apart here.

Columns and labels:
rat-alpha7-nAChR = biological target: T1, rat-alpha7-nAChR (Rattus norvegicus, UniProt Q05941); assay: functional FLIPR assay, alpha7 nAChR stably expressed in GH4C1 cells; type: cell-based
T1 construct: expressed in transfected cells
Text: Rat GH4C1 cells were then transfected with the rat receptor, cloned and analyzed for functional alpha7 nicotinic receptor expression employing a FLIPR assay to measure changes in intracellular calcium concentrations.
The FLIPR system allows the measurements of real time Ca^2+-concentration changes in living cells using a Ca^2+ sensitive fluorescence dye (such as Fluo4). This instrument enables the screening for agonists and antagonists for alpha 7 nAChR channels stably expressed in GH4C1 cells.
GH4C1 cells stably transfected with rat-alpha7-nAChR (see above) were used. These cells are poorly adherent and therefore pretreatment of flasks and plates with poly-D-lysine was carried out. Cells are grown in 150 cm^2 T-flasks, filled with 30 ml of medium at 37° C. and 5% CO2.
EC50 and IC50 values were calculated using the IDBS XLfit4.1 software package employing a sigmoidal concentration-response (variable slope) equation:

[1] = metabolite profile in dog plasma by LC/MS; type: in vivo; conditions: dog plasma after single […] IV or 7.6 mg/kg PO dose of parent
Method: (§1) Rat plasma samples from single 6.7 mg/kg IV at 0, 10 min and 20.5 mg/kg IV at 0, 0.5, 4 hr post dosing; dog plasma samples from single 1.5 mg/kg IV at 0, 0.167, 1, 6 hr and 7.6 mg/kg PO at 0, 0.5, 2, 6 hr post dosing were analyzed by LC/MS. A standard of the parent compound was analyzed by LC/MS and there was no impurity detected.

[2] = metabolite profile in rat plasma by LC/MS; type: in vivo; conditions: rat plasma after single 6.7 or 20.5 mg/kg IV dose of parent
Method: as §1
In rat plasma, a compound of formula I was the predominant compound-related material while metabolites were detected at very low levels. […] (See FIGS. 1 and 2; for compound I′ n=1, R^1=methyl, and R^2═H)

[3] = functional FLIPR primary screening assay, GH4C1 cell line expressing α7 nAChR, read-out: Alpha7 EC50

T1 sequence (Q05941 23-502): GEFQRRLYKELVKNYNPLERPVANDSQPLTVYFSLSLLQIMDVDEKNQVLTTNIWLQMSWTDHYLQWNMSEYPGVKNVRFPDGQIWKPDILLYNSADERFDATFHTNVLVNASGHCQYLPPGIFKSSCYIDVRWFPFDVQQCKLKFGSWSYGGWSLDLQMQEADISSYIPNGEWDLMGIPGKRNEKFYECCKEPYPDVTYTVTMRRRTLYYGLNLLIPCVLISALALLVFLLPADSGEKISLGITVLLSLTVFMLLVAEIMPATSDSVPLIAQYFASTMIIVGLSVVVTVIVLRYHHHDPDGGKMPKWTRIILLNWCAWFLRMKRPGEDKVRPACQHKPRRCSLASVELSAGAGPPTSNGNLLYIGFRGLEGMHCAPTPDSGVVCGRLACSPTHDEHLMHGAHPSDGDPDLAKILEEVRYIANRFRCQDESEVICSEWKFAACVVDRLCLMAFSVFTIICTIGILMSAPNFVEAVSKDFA

Row | Structure (SMILES) | EC50 (rat-alpha7-nAChR; [3]) [nM] | compound-related material detected in rat plasma [2] | other results
1 | CC(=O)N1CCCC(CCCCC(=O)Nc2cc(-c3ccc(O)cc3)[nH]n2)CC1 (stereo not drawn) | 1000 | – | –
2 | COc1ccc(C2CC(NC(=O)CCCCN3CCCNCC3)NN2)cc1 (stereo not drawn) | 6900 | – | –
3 | CC(=O)N1CCCN(CCCCC(=O)Nc2cc(-c3ccc(O)cc3)n[nH]2)CC1 [Compound I-1] | – | detected as metabolites | compound-related material detected in dog plasma [1]: very minor metabolite
4 | CC(=O)N1CCCN(CCCCC(=O)Nc2cc(-c3ccc(OS(=O)(=O)O)cc3)[nH]n2)CC1 [Compound I-2] | – | detected as metabolites | –
5 | C[N+]1(C)CCN(c2ccccc2)CC1 [DMPP, reference compound] | – | – | EC50 (rat-alpha7-nAChR; alpha7 nAChR stably expressed in GH4C1 cells, functional FLIPR assay, agonist validation, read-out: EC50): 980 ± 470 nM
